In patent publication US10682366B2, “Method for enhancing immunity using ginsenoside F1 as an active ingredient” (INTELLIGENT SYNTHETIC BIOLOGY CENTER, priority 2016, dated 2020):

Tests used:
[1] = tested on: peripheral blood mononuclear cells (PBMCs) and natural killer cells; assay: Degranulation activity of innate immune cells (CD107a expression by FACS); type: cell-based, human; conditions: cells pretreated with ginsenoside, co-cultured with K562 or 721.221 target cell; compared to DMSO (vehicle)-treated group
Description: Effect of ginsenoside F1 on degranulation activity of innate immune cells was measured by fluorescence activated cell sorter (FACS).
In detail, peripheral blood mononuclear cells (PBMCs) separated from the blood and purified natural killer cells were pretreated with ginsenoside, and then co-cultured with K562 cell or 721.221 cell which is a target cell of the above cells, respectively. Thereafter, the surfaces of the peripheral blood mononuclear cells and the natural killer cells were stained with fluorochrome-conjugated anti-CD3, anti-CD56, and anti-CD107a antibodies. Meanwhile, degranulation activity of peripheral blood mononuclear cells or natural killer cells is proportional to CD107a expression on cell surface, as shown in FIG. 1. Therefore, CD107a expression levels of the peripheral blood mononuclear cells and the natural killer cells were measured by a FACS machine.

[2] = tested on: primary natural killer cells; assay: Cell-killing activity of primary natural killer cells (cytolysis of target cells); type: cell-based, human; conditions: for cytolysis of target cells: compared to DMSO-treated group
Description: (§1) In detail, peripheral blood mononuclear cells (PBMCs) separated from the blood and purified natural killer cells were pretreated with ginsenoside F1 or Rg3, and then co-cultured with K562 cell or 721.221 cell which is an europium-labeled target cells. The natural killer cell and the target cell were mixed at a ratio of 5:1, 10:1, 20:1, and 40:1, followed by culture. Meanwhile, intensity of fluorescence emitted from the target cell is proportional to cell-killing activity of natural killer cell. Therefore, a culture medium was separated by centrifugation, and then fluorescence emitted by cell lysis of the target cell was measured by using a microplate reader.
Blood (50 ml) of a healthy donor was collected in a vacutainer cell preparation tube (BD Biosciences) containing sodium heparin. Thereafter, the blood was percoll-gradient centrifuged to recover a buffy coat which is a white thin layer consisted of platelets and white blood cells. Peripheral blood mononuclear cells obtained by washing this buffy coat with PBS were separated by using a human NK cell negative selection kit (Miltenyl Biotech). Part of the separated natural killer cells and a FACS buffer were mixed, and then purity of natural killer cells (CD3^−/CD16^+) and the number and ratio of CD56^dim/CD16^+, CD56^bright/CD16^−, and CD56^bright/CD16^+ were measured by using a FACS machine and fluorochrome-conjugated anti-CD3, anti-CD56, and […] antibodies. Natural killer cells with purity of 95% or more were used in experiments.
The primary natural killer cells separated by the method of Example 3-1 were used to examine whether ginsenoside F1 increases cell-killing activity of primary natural killer cells, in the same manner as in Example 2.

[3] = tested on: natural killer cells co-cultured with K562 cell or 721.221 cell; assay: Cell-killing activity of natural killer cells (cytolysis of europium-labeled target cells); type: cell-based, human; conditions: pretreated NK cells; NK:target ratio 5:1, 10:1, 20:1, 40:1; K562 or 721.221; compared to DMSO-treated group
Description: In order to examine whether ginsenoside F1 increases cell-killing activity of natural killer cells, cytolysis of target cells was measured.
as §1

[4] = tested on: natural killer cell-sensitive RMA-S (MHC class I-) cells; assay: In vivo natural killer cell-based selective reduction of RMA-S (RMA-S/RMA target cell system); conditions: mice pretreated at 25 mg/kg; for removability (selective reduction rate of RMA-S): RMA-S/RMA mixture intraperitoneal, 8 hours later, FACS
Description: To evaluate effectiveness of in vivo cell-killing activity of ginsenoside F1, natural killer cell-sensitive RMA-S (MHC class I^−) and natural killer cell-resistant RMA (MHC class I^+) target cell systems were used.
In detail, mice were pretreated with ginsenoside F1 at a dose of 25 mg/kg. A mixture of RMA-S/RMA cells, each cell labeled with different fluorescence intensity, was administered into the mice via intraperitoneal injection. 8 hours later, a selective reduction rate of RMA-S by natural killer cells was analyzed by FACS.

[5] = tested on: primary natural killer cells; assay: Calcium flux assay by confocal live cell imaging; type: cell-based, human; conditions: activated with NKG2D antibody and 2B4 antibody; compared to ginsenoside Rg1
Description: To investigate a natural killer cell-based immune enhancement mechanism of ginsenoside F1 calcium flux assay of individual cells was performed by live cell imaging using confocal microscopy.
In detail, primary natural killer cells were purified (>97%) by the method of Example 3-1, and then treated with ginsenoside F1 or Rg1. For 30 seconds, a basal calcium level was measured, and then natural killer cells were activated using a combination of NKG2D antibody and 2B4 antibody, followed by calcium flux assay by confocal live cell imaging.

[6] = tested on: primary natural killer cells; assay: Analysis of cell-killing factors (perforin, granzyme B) by quantitative RT-PCR; type: cell-based, human; conditions: 12 hours after treatment
Description: To investigate a cell-killing activation mechanism of natural killer cells by ginsenoside F1, primary natural killer cells purified by the method of Example 3-1 were treated with ginsenoside F1 or Rg1. 12 hours later, total RNA was isolated, and then expressions of perforin and granzyme B which are representative cell-killing factors of natural killer cells were analyzed by quantitative RT-PCR.
In detail, total RNA was isolated from natural killer cells using a TRIzol reagent, and cDNA was synthesized using primers of unknown sequences, which were manufactured by Toyobo, and reverse transcriptase. Thereafter, quantitative RT-PCR was performed using primers of the following Table 1 and SYBR PCR Master Mix (Toyobo).
PCR conditions are the same as in the following Table 2.

SMILES | CD107a expression [1] | cytolysis of target cells [2] | cytolysis of target cells [3] | removability (selective reduction rate of RMA-S) [4] | RMA-S reduction effect relative to non-treated group ([4]; 8 hours) | calcium flux of natural killer cells [5] | cytolysis of target cells compared to the ginsenoside Rg3 and Rg1-treated group [2] | expression level of granzyme B compared to ginsenoside Rg1-treated group [6] | expression level of perforin compared to ginsenoside Rg1-treated group [6] | expression level of granzyme B ([6]; compared to non-treated group) | expression level of perforin ([6]; compared to non-treated group)
CC(C)=CCC[C@](C)(O)[C@H]1CC[C@]2(C)[C@@H]1[C@H](O)C[C@@H]1[C@@]3(C)CC[C@H](O[C@@H]4O[C@H](CO)[C@@H](O)[C@H](O)[C@H]4O[C@@H]4O[C@H](CO)[C@@H](O)[C@H](O)[C@H]4O)C(C)(C)[C@@H]3CC[C@]12C [ginsenoside Rg3, reference compound] | increased | high cytolysis of target cells | high cytolysis of target cells | – | – | – | – | – | – | – | –
CC(C)=CCC[C@](C)(O[C@@H]1O[C@H](CO)[C@@H](O)[C@H](O)[C@H]1O)[C@H]1CC[C@]2(C)[C@@H]1[C@H](O)C[C@@H]1[C@@]3(C)CC[C@H](O)C(C)(C)[C@@H]3[C@@H](O[C@@H]3O[C@H](CO)[C@@H](O)[C@H](O)[C@H]3O)C[C@]12C [ginsenoside Rg1, reference compound] | – | high cytolysis of target cells | – | about 52% | – | – | – | – | – | – | –
CC(C)=CCC[C@](C)(O[C@@H]1O[C@H](CO)[C@@H](O)[C@H](O)[C@H]1O)[C@H]1CC[C@]2(C)[C@@H]1[C@H](O)C[C@@H]1[C@@]3(C)CC[C@H](O)C(C)(C)[C@@H]3[C@@H](O)C[C@]12C [ginsenoside F1] | highest CD107a expression | high cytolysis of target cells | high cytolysis of target cells | ≥ 70% | 2 times | more effectively promotes calcium flux | remarkably excellent cytolysis | high expression level of granzyme B | high expression level of perforin | about 1.5 times | about 2 times
